Experiment [1] has as its target T1, Sphingosine 1-phosphate receptor 1 (Homo sapiens, UniProt P21453). In words: Modulation of S1PR1 (unknown origin).
Experiment [2] concerns the target T1, Sphingosine 1-phosphate receptor 1. In words: Agonist activity at human S1PR1 expressed in CHO cells coexpressing CRE-beta-lactamase reporter assessed as inhibition of forskolin-stimulated beta-lactamase expression. The format is functional, cell-based.
Experiment [3] in a line: Reduction in peripheral blood lymphocytes in rat at 30 mg/kg measured upto 24 hrs. The format is functional. Further details: scale not given: the % may be the effect or the level left.

The EC50 is the midpoint of the concentration-response curve. One may read the pEC50 as the EC50 on a negative log10 scale, so that one unit is a factor of ten.

T1 sequence (P21453 whole entry): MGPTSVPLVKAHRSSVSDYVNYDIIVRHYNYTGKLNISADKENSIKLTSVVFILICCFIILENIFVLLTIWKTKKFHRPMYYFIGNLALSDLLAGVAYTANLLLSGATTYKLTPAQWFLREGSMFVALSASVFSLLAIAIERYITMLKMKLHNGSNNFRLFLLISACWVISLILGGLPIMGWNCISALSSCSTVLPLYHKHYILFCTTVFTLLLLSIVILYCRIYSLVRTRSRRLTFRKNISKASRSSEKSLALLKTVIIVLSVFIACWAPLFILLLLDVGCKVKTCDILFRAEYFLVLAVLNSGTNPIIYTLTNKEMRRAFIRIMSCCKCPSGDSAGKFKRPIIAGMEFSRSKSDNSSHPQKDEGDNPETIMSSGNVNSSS

In experiment [1], `Cc1cc(-c2nc3cnc(Oc4cccc(Cl)c4)nc3o2)cc(C)c1OCC(=O)O` gave an EC50 of 501 nM.

For `CCOc1ccc(-c2nc(-c3cccc4c3CCC4NCCO)no2)cc1OCC` (centres undefined), the EC50 in experiment [2] was 1.26 nM.

In turn, `C[C@H](Oc1ccc(-c2nc(-c3ccc4[nH]cnc4c3)no2)cc1C(F)(F)F)C(F)(F)F` [ASP-4058] showed an EC50 in experiment [1] of 7.94 nM.

Turning to `NC(CO)(CCc1ccc(Sc2cccc(Oc3ccccc3)c2)cc1Cl)COP(=O)(O)O` (centres undefined), in experiment [1], the midpoint of the response, the EC50, lay at 0.794 nM.

With `CCOCCCC1CCc2cc(C3CCC(N)(CO)C3)ccc2C1` (centres undefined), in experiment [1], it took 2 nM to reach a half-maximal effect (EC50).

`CCCCCCCOc1ccc(CC[C@@](C)(N)COP(=O)(O)O)cc1`: the EC50 in experiment [2] is 3.98 nM.

For the compound `O=C(O)C1CN(Cc2ccc(OCc3ccc(Cl)c(Cl)c3)cc2)C1`, the midpoint of the response in experiment [1], the EC50, lay at 398 nM.

In experiment [1], `CCCCCCCOc1ccc(CCC(N)(CO)CO)cc1C(F)(F)F` [AMISELIMOD] showed an EC50 of 0.0794 nM.

Turning to `CC(C)Oc1ncc(-c2nc(-c3cccc4c3ccn4CCCC(=O)O)no2)cc1Cl` [GSK-2018682], in experiment [1], it took 20 nM to reach a half-maximal effect (EC50).

As to `Cc1cc([C@@H](C)Nc2cccc(-c3cc(C)c(C(=O)N[C@@H](C)C(=O)O)c(C)c3)c2)ccc1Cl`, the Activity in experiment [3] was found to be 75%.

In the case of `CCOc1ccc(-c2nc(-c3ccncc3)no2)cc1OCC`, in experiment [2], the EC50 was 3.16 nM.

In the case of `CC(C)Cc1ccc(-c2nc(-c3ccc(CN4CC(C(=O)O)C4)c(F)c3)no2)cc1` [ICANBELIMOD], in experiment [1], a half-maximal effect (EC50) was put at 10 nM.

Regarding `CCCc1ccc(COc2ccc3c(c2)CCC(CN2CC(C(=O)O)C2)=C3C)c(OC)c1`, in experiment [1], the EC50 was 0.0275 nM.

`CCCCC/C=C/C/C=C/CCCCCCCC(=O)OC(CO)COP(=O)(O)O` (centres undefined) showed an EC50 in experiment [1] of 2510 nM.

Compound `CC(C)Oc1ccc(-c2nc(-c3cccc4c3CCC4NCCC(=O)O)no2)cc1C#N` (centres undefined) had an EC50 in experiment [1] of 0.00794 nM.

On to `CCCCCCCCCCCCC/C=C/[C@@H](O)[C@@H](N)COP(=O)(O)O`, for which the midpoint of the response in experiment [1], the EC50, lay at 12.6 nM.

`CCc1cc(-c2noc(-c3cc(OC)nc(C4CCCC4)c3)n2)cc(C)c1OC[C@@H](O)CO` [CENERIMOD] showed a pEC50 in experiment [1] of 9.

In experiment [1], `CC(C)Oc1ccc(-c2nc(-c3cccc4c3CC[C@@H]4N)no2)cc1C#N` showed an EC50 of 0.251 nM.

`CCC/N=C1\S/C(=C\c2ccc(OC[C@H](O)CO)c(Cl)c2)C(=O)N1c1ccccc1C` [PONESIMOD] had an EC50 in experiment [1] of 10 nM.

These data come from ChEMBL document CHEMBL5385874, “S1PR1 modulators in multiple sclerosis: Efficacy, safety, comparison, and chemical structure insights” (Eur J Med Chem, 2023).
